Measurements published in US20230049619A1, “SIGMA-1 RECEPTOR LIGANDS AND USES THEREOF” (UNIVERSITE DE STRASBOURG, priority 2019, published 2023).
Where a name gives a salt, the structure may show the parent alone.

Molecular target: T1, sigma-1 receptor (Homo sapiens, UniProt Q99720)
T1 construct: incubing Jurkat cell membranes ([…] protein per tube) with [^3H](+)-pentazocine; endogenous in cells; host or cells: Jurkat cell membranes
Experiment: sigma-1 receptor binding assay ([3H](+)-pentazocine displacement, Jurkat cell membranes)
Conditions: tested compound 10 nM, [3H](+)-pentazocine 15 nM, 37° C., 2 hours
Method: The sigma-1 receptor binding assays were performed according to Ganapathy et al. (J Pharmacol Exp Ther 28:251-60, 1999). The sigma-1 receptor binding assay was carried out by incubing Jurkat cell membranes ([…] protein per tube) with [^3H](+)-pentazocine a selective sigma-1 radiotracer (15 nM) and a range of concentration of tested compounds, at 37° C. for 2 hours in 5 mM tris/HCl buffer (pH=7.4). The inhibition of [^3H](+)-pentazocine binding assay is mainly used to determine the inhibition constant (Ki) of potential sigma-1 receptor ligands. These assays are performed with a single concentration of [^3H](+)-pentazocine at a concentration near its KD and increasing concentrations of non-radioactive ligands.

T1 sequence (Q99720 whole entry): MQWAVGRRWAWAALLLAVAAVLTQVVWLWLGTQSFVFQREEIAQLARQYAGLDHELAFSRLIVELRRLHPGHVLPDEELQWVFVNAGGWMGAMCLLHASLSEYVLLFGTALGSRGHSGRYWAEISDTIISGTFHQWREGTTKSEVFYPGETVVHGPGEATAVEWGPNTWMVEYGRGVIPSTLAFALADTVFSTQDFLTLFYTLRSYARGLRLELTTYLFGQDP

With CCCN1CCC(Cn2nccc(-c3ccccc3)c2=O)CC1 [cpd 11, 4-phenyl-2-((1-propylpiperidin-4-yl)methyl)pyridazin-3(2H)-one hydrochloride] as the compound, how does the inhibition at 0.01 µM read?
The inhibition at 0.01 µM was 3.9%.

With O=c1c(-c2ccccc2)ccnn1CC1CCN(CC2CCCCC2)CC1 [cpd 13, 2-((1-(cyclohexylmethyl)piperidin-4-yl)methyl)-4-phenylpyridazin-3(2H)-one hydrochloride] as the compound, how does the inhibition at 0.01 µM read?
The inhibition at 0.01 µM was 59.3%.

How did the inhibition at 0.01 µM turn out when O=c1c(-c2ccccc2)cccn1C1CCN(Cc2ccccc2)CC1 [cpd 44, 1-(1-benzylpiperidin-4-yl)-3-phenyl-1,2-dihydropyridin-2-one hydrochloride] was run?
Its inhibition at 0.01 µM is 29.6%.

Cl.O=c1c(-c2ccccc2)ccnn1C1CCN(CC2CCCC2)CC1 [cpd 5, 2-[1-(cyclopentylmethyl)piperidin-4-yl]-4-phenyl-2,3-dihydropyridazin-3-one hydro-chloride] was tested. Which “sigma-1 receptor % inhibition 10 nM” value did it give?
Its value is 60.7%.

With O=c1cc(-c2ccccc2)cnn1CCC1CCN(Cc2ccccc2)CC1 [cpd 27, 2-(2-(1-benzylpiperidin-4-yl)ethyl)-5-phenylpyridazin-3(2H)-one hydrochloride] as the compound, how does the inhibition at 0.01 µM read?
The inhibition at 0.01 µM was 61.7%.

O=c1c(CCc2ccccc2)ccnn1CC1CCN(Cc2ccccc2)CC1 [cpd 36, 2-((1-benzylpiperidin-4-yl)methyl)-4-phenethylpyridazin-3(2H)-one] was tested. Which inhibition at 0.01 µM did it give?
Its inhibition at 0.01 µM is 44.2%.

Which inhibition at 0.01 µM does the source give for O=c1c(-c2ccccc2)ccnn1CC1CCN(Cc2ccc(O)cc2)CC1 [cpd 18, 2-((1-(4-hydroxybenzyl)piperidin-4-yl)methyl)-4-phenylpyridazin-3(2H)-one hydrochloride] here?
The inhibition at 0.01 µM was 16.7%.

Which inhibition at 0.01 µM does the source give for O=c1c(-c2ccccc2)ccnn1CC1CCCN(Cc2ccccc2)C1 (centres unmarked) [cpd 9, 2-[(1-benzylpiperidin-3-yl)methyl]-4-phenyl-2,3-dihydropyridazin-3-one hydrochloride] here?
Its inhibition at 0.01 µM is 38.8%.

For O=c1c(-c2ccccc2)ccnn1CC1CCN(CCc2ccccc2)CC1 [cpd 10, 2-((1-phenethylpiperidin-4-yl)methyl)-4-phenylpyridazin-3(2H)-one hydrochloride], which inhibition at 0.01 µM is on record?
Its inhibition at 0.01 µM is 29.2%.

Cl.O=c1c(N2CCCCC2)ccnn1CC1CCN(Cc2ccccc2)CC1 [cpd 39, 2-[(1-benzylpiperidin-4-yl)methyl]-4-(piperidin-1-yl)-2,3-dihydropyridazin-3-one hydro-chloride] was tested. Which “sigma-1 receptor % inhibition 10 nM” value did it give?
The value was 51.8%.

How did the inhibition at 0.01 µM turn out when O=c1c(-c2ccc(F)cc2)ccnn1CC1CCN(Cc2ccccc2)CC1 [cpd 35, 2-((1-benzylpiperidin-4-yl)methyl)-4-(4-fluorophenyl)pyridazin-3(2H)-one hydrochloride] was run?
Its inhibition at 0.01 µM is 44.6%.

How did the inhibition at 0.01 µM turn out when O=c1c(-c2ccccc2)ccnn1CC1CCN(CC2CCOCC2)CC1 [cpd 15, 4-phenyl-2-((1-((tetrahydro-2H-pyran-4-yl)methyl)piperidin-4-yl)methyl)pyridazin-3(2H)-one dihydrochloride] was run?
The inhibition at 0.01 µM was 19.3%.

Which inhibition at 0.01 µM does the source give for O=c1c(-c2ccccc2)cccn1CC1CCN(Cc2ccccc2)CC1 [cpd 46, 1-[(1-benzylpiperidin-4-yl)methyl]-3-phenyl-1,2-dihydropyridin-2-one hydrochloride] here?
The inhibition at 0.01 µM was 75.6%.

For O=c1c(-c2ccccc2Cl)ccnn1CC1CCN(Cc2ccccc2)CC1 [cpd 33, 2-[(1-benzylpiperidin-4-yl)methyl]-4-(2-chlorophenyl)-2,3-dihydropyridazin-3-one hydrochloride], which inhibition at 0.01 µM is on record?
The inhibition at 0.01 µM was 51.2%.

Cl.Cl.O=c1c(-c2ccccc2)ccnn1CC1CCN(Cc2cnc[nH]2)CC1 [cpd 16, 2-{[1-(1H-imidazol-5-ylmethyl)piperidin-4-yl]methyl}-4-phenyl-2,3-dihydropyridazin-3-one dihydro-chloride] was tested. Which “sigma-1 receptor % inhibition 10 nM” value did it give?
The value was 3.8%.

Which inhibition at 0.01 µM does the source give for O=c1c(-c2ccccc2)ccnn1CC1CCN(Cc2ccc(Cl)cc2)CC1 [cpd 12, 2-((1-(4-chlorobenzyl)piperidin-4-yl)methyl)-4-phenylpyridazin-3(2H)-one hydrochloride] here?
Its inhibition at 0.01 µM is 73.1%.

Which inhibition at 0.01 µM does the source give for O=c1c(CCc2ccccc2)ccnn1C1CCN(Cc2ccccc2)CC1 [cpd 37, 2-(1-benzylpiperidin-4-yl)-4-(2-phenylethyl)-2,3-dihydropyridazin-3-one hydrochloride] here?
Its inhibition at 0.01 µM is 90%.

O=c1c(N2CCc3ccccc3C2)ccnn1CC1CCN(Cc2ccccc2)CC1 [cpd 42, 2-((1-benzylpiperidin-4-yl)methyl)-4-(3,4-dihydroisoquinolin-2(1H)-yl)pyridazin-3(2H)-one hydrochloride] was tested. Which inhibition at 0.01 µM did it give?
The inhibition at 0.01 µM was 25.4%.

Which inhibition at 0.01 µM does the source give for O=c1c(-c2ccccc2)ccnn1C1CCN(CC2CC2)CC1 [cpd 4, 2-[1-(cyclopropylmethyl)piperidin-4-yl]-4-phenyl-2,3-dihydropyridazin-3-one hydrochloride] here?
The inhibition at 0.01 µM was 13.5%.

For O=c1c(-c2ccccc2)ccnn1CCC1CCN(Cc2ccccc2)CC1 [cpd 26, 2-(2-(1-benzylpiperidin-4-yl)ethyl)-4-phenylpyridazin-3(2H)-one hydrochloride], which inhibition at 0.01 µM is on record?
The inhibition at 0.01 µM was 80.9%.

How did the inhibition at 0.01 µM turn out when O=c1c(N2CCCCC2)ccnn1C1CCN(Cc2ccccc2)CC1 [cpd 38, 2-(1-benzylpiperidin-4-yl)-4-(piperidin-1-yl)-2,3-dihydropyridazin-3-one hydrochloride] was run?
The inhibition at 0.01 µM was 52.3%.

Which inhibition at 0.01 µM does the source give for O=c1c(-c2ccccc2)ccnn1CC1(O)CCN(Cc2ccccc2)CC1 [cpd 29, 2-((1-benzyl-4-hydroxypiperidin-4-yl)methyl)-4-phenylpyridazin-3(2H)-one hydrochloride] here?
Its inhibition at 0.01 µM is 10.6%.

How did the inhibition at 0.01 µM turn out when O=c1c(-c2ccccc2)ccnn1C1CCN(CCc2ccccc2)CC1 [cpd 3, 4-phenyl-2-[1-(2-phenylethyl)piperidin-4-yl]-2,3-dihydropyridazin-3-one hydrochloride] was run?
The inhibition at 0.01 µM was 41.9%.

How did the inhibition at 0.01 µM turn out when O=c1c(N2CCOCC2)ccnn1CC1CCN(Cc2ccccc2)CC1 [cpd 40, 2-((1-benzylpiperidin-4-yl)methyl)-4-morpholinopyridazin-3(2H)-one hydrochloride] was run?
The inhibition at 0.01 µM was 8.2%.

For O=c1c(-c2ccccc2)cncn1CC1CCN(Cc2ccccc2)CC1 [cpd 45, 3-((1-benzylpiperidin-4-yl)methyl)-5-phenylpyrimidin-4(3H)-one], which inhibition at 0.01 µM is on record?
Its inhibition at 0.01 µM is 75.7%.

With O=c1cc(-c2ccccc2)cnn1CC1CCN(Cc2ccccc2)CC1 [cpd 8, 2-((1-benzylpiperidin-4-yl)methyl)-5-phenylpyridazin-3(2H)-one hydrochloride] as the compound, how does the inhibition at 0.01 µM read?
The inhibition at 0.01 µM was 31.5%.

O=c1c(-c2ccccc2)ccnn1CC1CCN(Cc2ccncc2)CC1 [cpd 14, 4-phenyl-2-((1-(pyridin-4-ylmethyl)piperidin-4-yl)methyl)pyridazin-3(2H)-one hydrochloride] was tested. Which inhibition at 0.01 µM did it give?
The inhibition at 0.01 µM was 16.4%.

For O=c1cc(-c2ccccc2)cnn1C1CCN(Cc2ccccc2)CC1 [cpd 2, 2-(1-benzylpiperidin-4-yl)-5-phenylpyridazin-3(2H)-one hydrochloride], which inhibition at 0.01 µM is on record?
Its inhibition at 0.01 µM is 86%.

For O=C(CN1CCC(Cn2nccc(-c3ccccc3)c2=O)CC1)c1ccc(F)cc1 [cpd 24, 2-((1-(2-(4-fluorophenyl)-2-oxoethyl)piperidin-4-yl)methyl)-4-phenylpyridazin-3(2H)-one hydrochloride], which inhibition at 0.01 µM is on record?
The inhibition at 0.01 µM was 6.2%.

How did the inhibition at 0.01 µM turn out when O=c1c(N2CCN(c3ccccc3)CC2)ccnn1CC1CCN(Cc2ccccc2)CC1 [cpd 41, 2-((1-benzylpiperidin-4-yl)methyl)-4-(4-phenylpiperazin-1-yl)pyridazin-3(2H)-one hydrochloride] was run?
The inhibition at 0.01 µM was 5.2%.

With O=c1c(-c2ccccc2)ccnn1CC1CCN(CC(O)c2ccc(F)cc2)CC1 (centres unmarked) [cpd 23, 2-((1-(2-(4-fluorophenyl)-2-hydroxyethyl)piperidin-4-yl)methyl)-4-phenylpyridazin-3(2H)-one hydrochloride] as the compound, how does the inhibition at 0.01 µM read?
The inhibition at 0.01 µM was 1.3%.

How did the inhibition at 0.01 µM turn out when O=c1c(-c2ccccc2)ccnn1C1CCN(Cc2ccccc2)CC1 [cpd 1, 2-(1-benzylpiperidin-4-yl)-4-phenylpyridazin-3(2H)-one hydrochloride] was run?
The inhibition at 0.01 µM was 59.9%.

With O=c1c(-c2ccccc2)ccnn1CC1CCN(CCO)CC1 [cpd 20, 2-((1-(2-hydroxyethyl)piperidin-4-yl)methyl)-4-phenylpyridazin-3(2H)-one hydrochloride] as the compound, how does the inhibition at 0.01 µM read?
The inhibition at 0.01 µM was 18.9%.

How did the inhibition at 0.01 µM turn out when O=c1c(-c2ccccc2)ccnn1C1CCCN(Cc2ccccc2)CC1 (centres unmarked) [cpd 6, 2-(1-benzylazepan-4-yl)-4-phenyl-2,3-dihydropyridazin-3-one hydrochloride] was run?
Its inhibition at 0.01 µM is 81.4%.

With O=c1c(-c2ccccc2)ccnn1CC1CCN(CC(O)c2ccccc2)CC1 (centres unmarked) [cpd 25, 2-((1-(2-hydroxy-2-phenylethyl)piperidin-4-yl)methyl)-4-phenylpyridazin-3(2H)-one hydrochloride] as the compound, how does the inhibition at 0.01 µM read?
The inhibition at 0.01 µM was 15.3%.

Which inhibition at 0.01 µM does the source give for CC(C1CCN(Cc2ccccc2)CC1)n1nccc(-c2ccccc2)c1=O (centres unmarked) [cpd 28, 2-(1-(1-benzylpiperidin-4-yl)ethyl)-4-phenylpyridazin-3(2H)-one hydro chloride] here?
Its inhibition at 0.01 µM is 37%.

Same assay, conditions: tested compound 100 nM, [3H](+)-pentazocine 15 nM, 37° C., 2 hours

Which inhibition at 0.1 µM does the source give for O=c1c(-c2ccc(C(F)(F)F)cc2)ccnn1C1CCN(Cc2ccccc2)CC1 [cpd 31, 2-(1-benzylpiperidin-4-yl)-4-[4-(trifluoromethyl)phenyl]-2,3-dihydropyridazin-3-one hydro chloride] here?
Its inhibition at 0.1 µM is 80%.

With O=c1c(CCc2ccccc2)ccnn1C1CCN(Cc2ccccc2)CC1 [cpd 37, 2-(1-benzylpiperidin-4-yl)-4-(2-phenylethyl)-2,3-dihydropyridazin-3-one hydrochloride] as the compound, how does the inhibition at 0.1 µM read?
Its inhibition at 0.1 µM is 100%.

Cl.O=c1c(-c2ccc(Cl)cc2)ccnn1C1CCN(Cc2ccccc2)CC1 [cpd 32] was tested. Which “sigma-1 receptor % inhibition 100 nM” value did it give?
The value was 91.1%.

With O=c1c(-c2ccccc2)ccnn1CCC1CCN(Cc2ccccc2)CC1 [cpd 26, 2-(2-(1-benzylpiperidin-4-yl)ethyl)-4-phenylpyridazin-3(2H)-one hydrochloride] as the compound, how does the inhibition at 0.1 µM read?
The inhibition at 0.1 µM was 95%.

O=c1c(N2CCCCC2)ccnn1C1CCN(Cc2ccccc2)CC1 [cpd 38, 2-(1-benzylpiperidin-4-yl)-4-(piperidin-1-yl)-2,3-dihydropyridazin-3-one hydrochloride] was tested. Which inhibition at 0.1 µM did it give?
The inhibition at 0.1 µM was 90%.

O=c1cc(-c2ccccc2)cnn1C1CCN(Cc2ccccc2)CC1 [cpd 2, 2-(1-benzylpiperidin-4-yl)-5-phenylpyridazin-3(2H)-one hydrochloride] was tested. Which inhibition at 0.1 µM did it give?
The inhibition at 0.1 µM was 90%.

How did the inhibition at 0.1 µM turn out when O=c1c(-c2ccccc2)ccnn1C1CCN(Cc2ccccc2)CC1 [cpd 1, 2-(1-benzylpiperidin-4-yl)-4-phenylpyridazin-3(2H)-one hydrochloride] was run?
Its inhibition at 0.1 µM is 97.1%.

With COc1ccc(-c2ccnn(C3CCN(Cc4ccccc4)CC3)c2=O)cc1 [cpd 30, 2-(1-benzylpiperidin-4-yl)-4-(4-methoxyphenyl)pyridazin-3(2H)-one hydrochloride] as the compound, how does the inhibition at 0.1 µM read?
The inhibition at 0.1 µM was 75.8%.
